In paper PMC10947015, “Constraining and Modifying Peptides Using Pd‐Mediated Cysteine Allylation” (Chembiochem, 2023):
Where two headings read alike, the source gives them in different places. Starred links: 1 amine or outer side, 2 acyl side, 3 side chain; linkers in the order of their positions; H or OH if unused. Positions of bridges follow the written chain, without caps; N, C: chain ends. Non-standard residues stand in square brackets, D forms with d. Residues, ends and D or L forms follow the SMILES beside them. Groups on a side chain read outwards from the residue. *: point of attachment. X1 = O=C(CCCC[C@@H]1SC[C@@H]2NC(=O)N[C@@H]21)NCCCOCCOCCOCCCN*; Tyr(3-NO2) = N[C@@H](Cc1ccc(O)c([N+](=O)[O-])c1)C(=O)O; Glutaryl = O=C(CCCC(=O)[*:2])[*:1]; Hyp = O=C(O)[C@@H]1C[C@@H](O)CN1; X2 = C(=C/C[*:2])/C[*:1]; X3 = C(#CC[*:2])C[*:1]

Molecular target: T1, integrin α3β1 (Homo sapiens, UniProt P05556+P26006)
T1 construct: integrin α3β1 expressed on human MDA‐MB231 cells; endogenous in cells; host or cells: MDA-MB231 (human)
T1 sequence (P26006 33-872 limits assumed): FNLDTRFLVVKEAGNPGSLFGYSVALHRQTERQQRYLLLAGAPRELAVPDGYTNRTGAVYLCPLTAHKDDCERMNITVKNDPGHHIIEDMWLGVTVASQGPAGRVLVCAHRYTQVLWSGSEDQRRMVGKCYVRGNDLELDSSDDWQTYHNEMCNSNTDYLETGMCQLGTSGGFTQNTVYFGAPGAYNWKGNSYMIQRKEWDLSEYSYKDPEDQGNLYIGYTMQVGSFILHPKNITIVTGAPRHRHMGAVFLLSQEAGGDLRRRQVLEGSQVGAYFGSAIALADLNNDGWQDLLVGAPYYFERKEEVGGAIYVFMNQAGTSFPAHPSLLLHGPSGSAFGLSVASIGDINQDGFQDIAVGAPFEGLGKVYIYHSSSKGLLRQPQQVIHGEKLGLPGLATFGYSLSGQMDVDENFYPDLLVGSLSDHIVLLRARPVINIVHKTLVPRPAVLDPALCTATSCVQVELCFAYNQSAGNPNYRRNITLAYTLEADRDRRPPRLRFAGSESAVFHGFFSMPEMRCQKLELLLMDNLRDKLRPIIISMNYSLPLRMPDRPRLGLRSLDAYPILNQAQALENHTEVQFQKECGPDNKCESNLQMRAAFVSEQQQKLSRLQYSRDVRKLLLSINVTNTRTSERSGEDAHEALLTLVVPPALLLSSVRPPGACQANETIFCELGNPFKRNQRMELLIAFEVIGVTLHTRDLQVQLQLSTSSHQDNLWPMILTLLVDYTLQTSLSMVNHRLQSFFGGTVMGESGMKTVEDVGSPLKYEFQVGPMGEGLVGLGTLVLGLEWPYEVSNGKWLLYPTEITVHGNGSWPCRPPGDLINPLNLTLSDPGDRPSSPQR
T1 sequence (P26006 878-1051 limits assumed): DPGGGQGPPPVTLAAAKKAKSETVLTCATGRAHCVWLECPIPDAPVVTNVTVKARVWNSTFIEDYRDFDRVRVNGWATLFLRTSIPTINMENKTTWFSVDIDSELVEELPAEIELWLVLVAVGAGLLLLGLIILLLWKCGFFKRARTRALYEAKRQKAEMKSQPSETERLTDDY
T1 sequence (P05556 21-798): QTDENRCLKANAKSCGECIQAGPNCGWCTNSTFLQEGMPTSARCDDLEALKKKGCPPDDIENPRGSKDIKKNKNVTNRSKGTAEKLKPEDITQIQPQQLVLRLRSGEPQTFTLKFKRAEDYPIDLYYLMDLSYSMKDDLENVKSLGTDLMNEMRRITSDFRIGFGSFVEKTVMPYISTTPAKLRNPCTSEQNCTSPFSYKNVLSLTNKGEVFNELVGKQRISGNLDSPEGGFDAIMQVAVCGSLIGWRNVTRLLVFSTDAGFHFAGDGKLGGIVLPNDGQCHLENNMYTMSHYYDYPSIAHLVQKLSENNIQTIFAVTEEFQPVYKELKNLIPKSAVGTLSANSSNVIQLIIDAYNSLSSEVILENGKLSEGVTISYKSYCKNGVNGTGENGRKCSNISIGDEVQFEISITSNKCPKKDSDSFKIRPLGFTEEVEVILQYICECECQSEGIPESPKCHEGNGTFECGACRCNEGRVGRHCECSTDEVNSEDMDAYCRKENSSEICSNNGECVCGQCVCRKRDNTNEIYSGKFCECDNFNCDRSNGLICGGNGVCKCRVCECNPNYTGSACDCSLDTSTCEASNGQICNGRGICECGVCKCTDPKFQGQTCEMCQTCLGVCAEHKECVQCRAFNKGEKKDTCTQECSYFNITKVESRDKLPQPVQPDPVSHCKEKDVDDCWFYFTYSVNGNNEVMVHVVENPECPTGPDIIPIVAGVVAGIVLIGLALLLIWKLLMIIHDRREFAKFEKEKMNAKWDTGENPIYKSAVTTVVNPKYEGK
Assay: Binding of stapled peptides to integrin α3β1 on MDA-MB231 cells, flow cytometry with streptavidin-PerCP-Cy5.5 staining
Experimental: The obtained stapled peptides P1 a–g were tested for binding to integrin α3β1 expressed on human MDA‐MB231 cells (Figure S2). Upon incubation for 30 min with different concentrations of the stapled P1 a–g variants, streptavidin‐PerCP‐Cy5.5 was added after three washing steps to allow detection by flow cytometry. Peptide P2 (P1 in its disulfide cyclized form) served as a positive control, which bound with an apparent affinity of 100 nM.[23]
Binding of stapled peptides to murine 4T1 cells and human MDA-MB231 cells
Figure S2: Determination of Kd values for peptides P1a-h based on streptavidin-PerCP-Cy5.5 staining of integrin- containing cells incubated with different peptide concentrations. A: Peptides P1a-c in mouse 4T1 cells. B: P1a-c in human MDA-MB231 cells. C: Peptides P1d-h in human MDA-MB231 cells.
4T1 and MDA-MB231 cells were grown in culture according to the suppliers’ guidelines, and cells were detached by using trypsin/EDTA (PAN, diluted 1:2 with PBS). Resuspended cells in complete culture medium were centrifuged and washed once with washing buffer [HEPES (pH 7.3, 10 mM) in NaCl (0.9 %)] at 4°C and resuspended (2x10^6 cells mL-1) in peptide blocking buffer (PBB): HEPES (pH 7.3, 10 mM) in NaCl (0.9%) + KCl (5 mM), BSA (3%) + FCS (5 %) + MnCl2 (4 mM). Peptide samples were prepared at twice the final concentration in PBB and added to the cells to give final peptide concentrations of 1 nM - 3 µM. Cells (1x105 per 50 µL) were aliquoted into FACS tubes and incubated for 10 min on ice before addition of the peptide samples (50 µL). […]
PerCP-Cy5.5 (100 µL, Beckton Dickinson, 0.5 mg mL-1) in PBB. […] Cells were kept on ice until analysis with a FACS Canto instrument and 10000 events/sample were recorded. Data were evaluated with Flowing software. Gating was performed on single and live cells, and histograms of PerCP–Cy5.5 fluorescence were plotted. Kd values were calculated by fitting the data to a one-site specific binding model [Y=BmaxVX/(Kd+X)] by using GraphPad Prism, and errors represent the standard error of the fit.

[1] = Figure 2, integrin α3β1, flow cytometry binding, read-out: Kd

| Structure (SMILES) | Kd (integrin α3β1 expressed on human MDA-MB231 cells, 30 min incubation on ice, streptavidin-PerCP-Cy5.5, flow cytometry, one-site specific binding fit, read-out: binding affinity) | Kd [1] |
| --- | --- | --- |
| NC(=O)C[C@@H]1NC(=O)[C@@H]2C[C@@H](O)CN2C(=O)CNC(=O)[C@H](Cc2ccc(O)c([N+](=O)[O-])c2)NC(=O)CNC(=O)[C@@H](CC(=O)O)NC(=O)[C@H](N)CSCC#CCSC[C@H](C(=O)NCC(=O)NCC(=O)N[C@@H](CCCCNC(=O)CCCC(=O)NCCCOCCOCCOCCCNC(=O)CCCC[C@@H]2SC[C@@H]3NC(=O)N[C@@H]32)C(N)=O)NC1=O [P1 d] (H-[dC][dD]G[Tyr(3-NO2)]G[Hyp]N[dC]GGK([Glutaryl-X1])-NH2; linker 1-8 via X3) | ~10 µM |  |
| NC(=O)C[C@@H]1NC(=O)[C@@H]2C[C@@H](O)CN2C(=O)CNC(=O)[C@H](Cc2ccc(O)c([N+](=O)[O-])c2)NC(=O)CNC(=O)[C@@H](CC(=O)O)NC(=O)[C@H](N)CSSC[C@H](C(=O)NCC(=O)NCC(=O)N[C@@H](CCCCNC(=O)CCCC(=O)NCCCOCCOCCOCCCNC(=O)CCCC[C@@H]2SC[C@@H]3NC(=O)N[C@@H]32)C(N)=O)NC1=O [Peptide P2, reference compound] (H-[dC][dD]G[Tyr(3-NO2)]G[Hyp]N[dC]GGK([Glutaryl-X1])-NH2; disulfide 1-8) |  | 0.1 µM |
| NC(=O)C[C@@H]1NC(=O)[C@@H]2C[C@@H](O)CN2C(=O)CNC(=O)[C@H](Cc2ccc(O)c([N+](=O)[O-])c2)NC(=O)CNC(=O)[C@@H](CC(=O)O)NC(=O)[C@H](N)CSC/C=C\CSC[C@H](C(=O)NCC(=O)NCC(=O)N[C@@H](CCCCNC(=O)CCCC(=O)NCCCOCCOCCOCCCNC(=O)CCCC[C@@H]2SC[C@@H]3NC(=O)N[C@@H]32)C(N)=O)NC1=O [P1 a] (H-[dC][dD]G[Tyr(3-NO2)]G[Hyp]N[dC]GGK([Glutaryl-X1])-NH2; linker 1-8 via X2) |  | 13 µM |
